From patent US8933228B2, “Respiratory formulations and compounds for use therein” (Respivert, Ltd., priority 2010, dated 2015)

Legend:
p38 MAPK alpha (MAPK14) = p38 MAPK alpha (MAPK14) (Homo sapiens (Human), UniProt Q16539); assay: Enzyme inhibition assay (FRET, Z-LYTE), p38 MAPK alpha via MAPKAP-K2 activation; format: biochemical; settings: read-out: Enzyme Profile: IC50 Values p38α
Procedure, shortened: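 Recombinant p38 MAPKα was preincubated with compound 2 hr at RT. Its activity was measured indirectly through MAPKAP-K2 activation/phosphorylation, read by Z-LYTE FRET after 1 hr protease development. Phosphorylation was taken from the coumarin/fluorescein emission ratio.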

p38 MAPK γ (MAPK12) = p38 MAPK γ (MAPK12) (Homo sapiens (Human), UniProt P53778); assay: Enzyme inhibition assay (FRET, Z-LYTE), p38 MAPK gamma; format: biochemical; settings: read-out: Enzyme Profile: IC50 Values p38γ
Procedure, shortened: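 Recombinant phosphorylated human p38γ preincubated with compound 2 hr at RT in HEPES buffer, then reacted 1 hr with 2 μM FRET peptide and 100 μM ATP. Protease development 1 hr; phosphorylation derived from coumarin/fluorescein emission ratio.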

HCK enzyme = HCK enzyme (Homo sapiens (Human), UniProt P08631); assay: HCK enzyme inhibition assay (FRET, Z'-LYTE); format: biochemical; settings: read-out: Enzyme Profile: IC50 Values HCK
cSrc enzyme = cSrc enzyme (Homo sapiens (Human), UniProt P12931); assay: c-SRC enzyme inhibition assay (FRET, Z'-LYTE); format: biochemical; settings: read-out: Enzyme Profile: IC50 Values cSrc
[1] = system: TNFα release in THP-1 cells; assay: LPS-induced TNFα release in THP-1 cells; format: cell-based; settings: Homo sapiens; THP-1 cells, LPS 3 μg/mL, 4 hr; read-out: THP1 (LPS) TNFα IC50
Experimental: The inhibition of TNFα production was calculated at each concentration by comparison with vehicle control.

[2] = system: TNFα release in d-U937 cells; assay: LPS-induced TNFα release in d-U937 cells; format: cell-based; settings: Homo sapiens, dU937, LPS 0.1 μg/mL, 4 hr, relative to 10 μg/mL BIRB796, read-out: d-U937 (LPS) TNFα REC50
Procedure, shortened: (§1)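 U937 cells made macrophage-like by 48–72 h with PMA (100 ng/mL), then stimulated with LPS (E. coli O111:B4) for 4 h. Supernatant TNFα and IL-8 measured by sandwich ELISA; inhibition versus vehicle control at each concentration, REC50 from concentration-response curve.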

[3] = system: IL-8 release in d-U937 cells; assay: LPS-induced IL-8 release in d-U937 cells; format: cell-based; settings: Homo sapiens, dU937; d-U937 cells, LPS 0.1 μg/mL, 4 hr; read-out: d-U937 (LPS) IL-8 IC50
Procedure, shortened: as §1

[4] = system: ICAM-1 expression in BEAS2B cells; assay: Poly I:C-induced ICAM-1 induction in BEAS2B cells; format: cell-based; settings: Homo sapiens, BEAS-2B; BEAS2B cells, poly I:C 1 μg/mL, 18 hr; read-out: BEAS2B (polyIC) ICAM1 IC50
Procedure, shortened: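 Human bronchial epithelial BEAS2B cells pre-incubated 2 hr with test compounds at final concentrations, then transfected with poly I:C (1 μg/mL) using Oligofectamine. Cell-surface ICAM-1 quantified by cell-based ELISA with HRP-conjugated anti-rabbit IgG secondary.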

HRV16 = assay: Rhinovirus-titre assay; format: cell-based, human rhinovirus; settings: Human rhinovirus sp., HRV16; cell not marked b; test compounds 0.04 μg/mL per method (footnote b, 0.2 μg/mL); read-out: HRV titre (inhibitory %): % inhibition observed vs. HRV16 infection control
[5] = system: Differentiated U937 cells; assay: MTT assay: cell viability; format: cell-based, human; settings: 1 μg/ml; for d-U937 MTT Assay 4 h: 5% FCS; for d-U937 MTT Assay 24 h: 10% FCS
Procedure, shortened: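 Differentiated U937 cells pre-incubated with compound either 4 hr in 5% FCS or 24 h in 10% FCS, then 1 hr MTT. Formazan dissolved in DMSO, absorbance at 550 nm. Percentage viability loss relative to 0.5% DMSO vehicle; apparent increases appear as negative percentages.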

Row | IC50 (p38 MAPK alpha (MAPK14)) [nM] | IC50 (p38 MAPK γ (MAPK12)) [nM] | IC50 (HCK enzyme) [nM] | IC50 (cSrc enzyme) [nM] | IC50 [1] [nM] | EC50 [2] [nM] | IC50 [3] [nM] | Structure (SMILES) | IC50 [4] [nM] | inhibition at 0.04 µg/mL (HRV16) [%] | d-U937 MTT Assay 4 h [5] | d-U937 MTT Assay 24 h [5]
1 | 4 | 50 | 5 | 12 | 1.6 | 1.8 | 8.1 | COc1ccc(-n2nc(C(C)(C)C)cc2NC(=O)Nc2ccc(Oc3ccnc4[nH]c(=O)cnc34)c3ccccc23)cc1 [Example 25, 1-(3-(tert-butyl)-1-(4-methoxyphenyl)-1H-pyrazol-5-yl)-3-(4-((3-oxo-3,4-dihydropyrido[2,3-b]pyrazin-8-yl)oxy)naphthalen-1-yl)urea] | 8.3 | 36 | − (− and + indicate the result is below and above the no significant effect threshold, respectively (<30% inhibition at a concentration of 1 μg/ml)) | − (− and + indicate the result is below and above the no significant effect threshold, respectively (<30% inhibition at a concentration of 1 μg/ml))
2 | 3 | 237 | 918 | 16 | 7.5 | 1.6 | 1.1 | CC(C)(C)c1cc(NC(=O)Nc2ccc(Oc3ccnc4[nH]c(=O)cnc34)c3ccccc23)n(-c2ccc(Cl)cc2)n1 [Example 27, 1-(3-(tert-butyl)-1-(4-chlorophenyl)-1H-pyrazol-5-yl)-3-(4-((3-oxo-3,4-dihydropyrido[2,3-b]pyrazin-8-yl)oxy)naphthalen-1-yl)urea] | 2.2 | 94 | − (− and + indicate the result is below and above the no significant effect threshold, respectively (<30% inhibition at a concentration of 1 μg/ml)) | − (− and + indicate the result is below and above the no significant effect threshold, respectively (<30% inhibition at a concentration of 1 μg/ml))
3 | 2 | > 18000 | 9 | 22 | 161 | 40 | 71 | Cc1ccc(-n2nc(C3CC3)cc2NC(=O)Nc2ccc(Oc3ccnc4[nH]c(=O)cnc34)c3ccccc23)cc1 [Example 28, 1-(3-cyclopropyl-1-(p-tolyl)-1H-pyrazol-5-yl)-3-(4-((3-oxo-3,4-dihydropyrido[2,3-b]pyrazin-8-yl)oxy)naphthalen-1-yl)urea] | > 184 | 36 | − (− and + indicate the result is below and above the no significant effect threshold, respectively (<30% inhibition at a concentration of 1 μg/ml)) | − (− and + indicate the result is below and above the no significant effect threshold, respectively (<30% inhibition at a concentration of 1 μg/ml))
4 | 5 | 19 | 4 | 10 | 17 | 5.6 | 6.7 | Cc1ccc(-n2nc(C3(C)CC3)cc2NC(=O)Nc2ccc(Oc3ccnc4[nH]c(=O)cnc34)c3ccccc23)cc1 [Example 29] | 13 | 60 | − (− and + indicate the result is below and above the no significant effect threshold, respectively (<30% inhibition at a concentration of 1 μg/ml)) | − (− and + indicate the result is below and above the no significant effect threshold, respectively (<30% inhibition at a concentration of 1 μg/ml))
